Results: patent US9555050B2 (BIOGEN MA INC., priority 2012, dated 2017)

molecular target: T1, Human ATX protein (Homo sapiens, UniProt Q13822); assay: ATX biochemical FRET assay with FS-3 substrate; conditions: FS-3 substrate 2 μM, ATX 1.0 μg/mL, 30 min preincubation, 2 hours at room temperature
T1 construct: made in house
Source text: ATX (Autotaxin) is a 125 KDa glycoprotein with lysophospholipase D (LPLD) activity that generates the bioactive lipid lysophosphatidic acid (LPA) from lysophosphatidylcholine (LPC). The ATX biochemical assay utilizes a FRET (fluorescence resonance energy transfer) technology platform. The fluorescence signal of FRET substrate FS-3 is quenched due to intra-molecular FRET of a fluorophore to a non-fluorescing quencher (Ferguson, C. G., et al., Org Lett. 2006 May 11; 8(10): 2023-2026, which is incorporated by reference in its entirety). ATX catalyzes the hydrolysis of the substrate which separates the dabsyl quencher from the fluorescein reporter, which becomes fluorescent. The reaction is monitored by a SpectraMax M5 (Molecular Devices, Sunnyvale, Calif.) with at excitation wavelength 485 nm and emission wavelength […].
Fatty acid free-BSA (Sigma A8806): 10 mg/mL in H2O, stored at 4° C.
2×ATX assay buffer: 100 mM Tris, 280 mM NaCl, 10 mM KCl, 2 mM CaCl2, 2 mM MgCl2, pH 7.4.
Human ATX protein: expressed and purified in house. Stored at −80° C.
Substrate FS-3 (Echelon, L-2000): 100 μg in 77.74.L H2O (1 mM stock), stored at −20° C.
384-well flat bottom plates—Corning #3575.
Compound dilution—All compounds were provided at 10 mM in 100% DMSO. In the first well, 2 μL of 10 mM compound was added to 78 μL of DMSO (1:40 dilution). In subsequent wells 3-fold dilution (total 10 dilutions) were performed.
1×ATX assay buffer was made up with a final concentration of 1 mg/mL fatty acid free-BSA using 2×ATX assay buffer, 10 mg/ml fatty acid free-BSA and ddH2O.
ATX protein was diluted with 1×ATX assay buffer to a concentration of 1.32 μg/mL (1.32×). 38 μL was added per well to the assay plate. The final concentration of ATX in the reaction as 1.0 μg/mL.
2 μL per well of compounds was transferred to provide the desired concentration. The plate was centrifuged, then incubated at room temperature for 30 minutes on the shaker.
FS-3 was diluted with 1×ATX assay buffer to a concentration of FS-3 of 10 μM (5×). Then, 10 μL was added per well to the assay plate. The final concentration of FS-3 in the reaction was 2 μM. The plate was centrifuged. The plate was kept shaking at room temperature for 2 hours. Because FS-3 substrate is light sensitive, plates were kept covered and protected from light.
Fluorescence was measured using SpectraMax M5 (excitation at 485 nm/emission at 538 nm, top read).

IC50 | SMILES
≤ 100 nM | CC[C@H](c1ccc2c(C(F)(F)F)c(O[C@H]3CC[C@@H](C)CC3)ccc2c1)N1CCC[C@H](CC(=O)O)C1 [Example 60, 2-((3R)-1-((R)-1-(6-((cis-4-Methylcyclohexyl)oxy)-5-(trifluoromethyl)naphthalen-2-yl)propyl)piperidin-3-yl)acetic acid]
≤ 100 nM | CCC(c1ccc2c(C(F)F)c(O[C@H]3CC[C@@H](C)CC3)ccc2c1)N1CC(CC(=O)O)C1 (relative stereo) [Example 99, 1-(1-(5-(Difluoromethyl)-6-((cis-4-methylcyclohexyl)oxy)naphthalen-2-yl)propyl)azetidine-3-acetic acid]
≤ 250 nM | O=C(O)C[C@H]1CCCN(Cc2ccc3c(C(F)(F)F)c(O[C@H]4CC[C@@H](C(F)(F)F)CC4)ccc3c2)C1 [Example 80, 2-((R)-1-((2-(cis-4-(trifluoromethyl)cyclohexyloxy)-1-(trifluoromethyl)naphthalen-6-yl)methyl)piperidin-3-yl)acetic acid]
≤ 250 nM | O=C(O)C1CCN(Cc2ccc3c(C(F)F)c(O[C@H]4CC[C@@H](C(F)(F)F)CC4)ccc3c2)CC1 [Example 21, 1-((5-(difluoromethyl)-6-((cis-4-(trifluoromethyl)cyclohexyl)oxy)naphthalen-2-yl)methyl)piperidine-4-carboxylic acid]
≤ 250 nM | CC1(C)C(NC(c2ccc3c(C(F)(F)F)c(O[C@H]4CC[C@@H](C)CC4)ccc3c2)C2CC2)CC1C(=O)O (stereo partly drawn) [Example 38]
≤ 100 nM | CC(c1ccc2c(C(F)(F)F)c(O[C@H]3CC[C@@H](C)CC3)ccc2c1)N1CCC[C@H](CC(=O)O)C1 (stereo partly drawn) [Example 51, 2-((3R)-1-(1-(6-((cis-4-Methylcyclohexyl)oxy)-5-(trifluoromethyl)naphthalen-2-yl)ethyl)piperidin-3-yl)acetic acid]
≤ 100 nM | CC[C@H](c1ccc2c(C(F)F)c(O[C@H]3CC[C@@H](C)CC3)ccc2c1)N1CCC[C@H](CC(=O)O)C1 [Example 94, 2-((3R)-1-((R)-1-(6-((cis-4-Methylcyclohexyl)oxy)-5-(difluoromethyl)naphthalen-2-yl)propyl)piperidin-3-yl)acetic acid]
≤ 500 nM | CC(C)CC(NC1CC(C(=O)O)C1(C)C)c1ccc2c(C(F)(F)F)c(O[C@H]3CC[C@@H](C)CC3)ccc2c1 (relative stereo) [Example 90, 2,2-dimethyl-3-(1-(6-((cis)-4-methylcyclohexyloxy)-5-(trifluoromethyl)naphthalen-2-yl)-3-methylbutylamino)cyclobutanecarboxylic acid]
≤ 100 nM | CC(c1ccc2c(C(F)F)c(O[C@H]3CC[C@@H](C)CC3)ccc2c1)N1CCC(C(=O)O)CC1 (relative stereo) [Example 55, 1-(1-(6-((cis-4-Methylcyclohexyl)oxy)-5-(difluoromethyl)naphthalen-2-yl)ethyl)piperidine-4-carboxylic acid]
≤ 100 nM | CCC(c1ccc2c(C(F)(F)F)c(O[C@H]3CC[C@@H](C)CC3)ccc2c1)N1CCC[C@H](CC(=O)O)C1 (stereo partly drawn) [Example 10, 2-((3R)-1-(1-(6-((cis-4-Methylcyclohexyl)oxy)-5-(trifluoromethyl)naphthalen-2-yl)propyl)piperidin-3-yl)acetic acid]
≤ 250 nM | O=C(O)[C@H]1CC[C@H](CNCc2ccc3c(C(F)F)c(O[C@H]4CC[C@@H](C(F)(F)F)CC4)ccc3c2)CC1 [Example 34, (trans)-4-(((5-(difluoromethyl)-6-((cis)-4-(trifluoromethyl)cyclohexyloxy)naphthalen-2-yl)methylamino)methyl)cyclohexanecarboxylic acid]
≤ 250 nM | O=C(O)[C@H]1CCCN(Cc2ccc3c(C(F)(F)F)c(O[C@H]4CC[C@@H](C(F)(F)F)CC4)ccc3c2)C1 [Example 26, (S)-1-((5-(trifluoromethyl)-6-((cis)-4-(trifluoromethyl)cyclohexyloxy)naphthalen-2-yl)methyl)piperidine-3-carboxylic acid]
